Results: ChEMBL document CHEMBL3727359, “Methods and compositions for treating or preventing pruritis” (2012)

What was measured:
[1] = biological target: T1, Mas-related G-protein coupled receptor member X1 (Homo sapiens, UniProt Q96LB2); assay: Antagonist activity at MrgX1 in mouse or rat DRG neurons assessed as intracellular Ca2+ level by FLIPR assay; assay type: functional, cell-based
[2] = biological target: T1, Mas-related G-protein coupled receptor member X1; assay: Antagonist activity at MrgX1 in mouse or rat DRG neurons assessed as action potential by whole-cell patch clamp method; assay type: functional

T1 sequence (Q96LB2 whole entry, looked up): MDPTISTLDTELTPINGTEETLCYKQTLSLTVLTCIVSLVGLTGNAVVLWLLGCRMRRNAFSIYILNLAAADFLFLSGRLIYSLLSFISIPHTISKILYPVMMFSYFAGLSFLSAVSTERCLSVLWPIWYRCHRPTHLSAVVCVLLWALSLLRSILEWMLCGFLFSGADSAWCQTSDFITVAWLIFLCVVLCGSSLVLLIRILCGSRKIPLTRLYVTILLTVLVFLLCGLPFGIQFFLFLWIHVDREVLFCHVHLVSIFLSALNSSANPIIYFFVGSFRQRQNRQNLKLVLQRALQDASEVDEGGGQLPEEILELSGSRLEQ

SMILES: N#Cc1ccc(COC2C3CCN(CC3)C2C(c2ccccc2)c2ccccc2)cc1 (configuration not stated)
- IC50 [1]: 0.632 µM
- IC50 [2]: 5.6 µM
